Tests used:
[1] = target: T1, Heat shock factor protein 1 (Homo sapiens) (UniProt Q00613); experiment: Inhibition of HSF1 in human HeLa cells assessed as potentiation of radicicol-induced increase in cell death at 2 uM relative to radicicol alone; type: cell-based; parameters: scale not given: the % may be the effect or the level left
T1 sequence (whole entry): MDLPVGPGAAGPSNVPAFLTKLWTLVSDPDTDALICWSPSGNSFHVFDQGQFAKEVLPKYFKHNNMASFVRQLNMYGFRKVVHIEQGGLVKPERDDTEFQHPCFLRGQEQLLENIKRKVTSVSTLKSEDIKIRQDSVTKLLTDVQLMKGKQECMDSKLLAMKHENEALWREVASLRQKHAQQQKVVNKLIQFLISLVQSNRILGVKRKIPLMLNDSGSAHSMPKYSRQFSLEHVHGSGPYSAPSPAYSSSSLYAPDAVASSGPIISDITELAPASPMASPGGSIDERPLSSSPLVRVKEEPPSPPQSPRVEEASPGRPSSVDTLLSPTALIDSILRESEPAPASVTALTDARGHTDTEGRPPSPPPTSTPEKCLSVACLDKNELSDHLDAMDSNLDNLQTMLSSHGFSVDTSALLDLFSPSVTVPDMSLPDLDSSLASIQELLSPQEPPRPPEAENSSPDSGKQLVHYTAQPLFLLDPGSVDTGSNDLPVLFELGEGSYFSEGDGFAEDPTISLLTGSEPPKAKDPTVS

[2] = target: T1, Heat shock factor protein 1 (Homo sapiens); experiment: Inhibition of HSF1 in human HCT116 cells assessed as potentiation of SM253-induced increase in cell death at 5 uM relative to SM253 alone; type: cell-based; parameters: scale not given: the % may be the effect or the level left; details: HCT-116
[3] = target: T1, Heat shock factor protein 1 (Homo sapiens); experiment: Inhibition of HSF1 in human HCT116 cells assessed as potentiation of SM253-induced reduction in HSF1 at 5 uM relative to SM253 alone; type: cell-based; parameters: scale not given: the % may be the effect or the level left; details: HCT-116
[4] = target: T1, Heat shock factor protein 1 (Homo sapiens); experiment: Inhibition of HSF1 in human HCT116 cells assessed as potentiation of SM253-induced increase in cell death at 50 uM relative to SM253 alone; type: cell-based; parameters: scale not given: the % may be the effect or the level left; details: HCT-116
[5] = target: T1, Heat shock factor protein 1 (Homo sapiens); experiment: Inhibition of HSF1 in human HCT116 cells assessed as potentiation of SM253-induced reduction in HSF1 at 50 uM relative to SM253 alone; type: cell-based; parameters: scale not given: the % may be the effect or the level left; details: HCT-116
[6] = target: T1, Heat shock factor protein 1 (Homo sapiens); experiment: Inhibition of HSF1 in human MIAPaCa2 cells assessed as potentiation of SM253-induced increase in cell death at 50 uM relative to SM253 alone; type: cell-based; parameters: scale not given: the % may be the effect or the level left; details: MIA PaCa-2
[7] = target: T1, Heat shock factor protein 1 (Homo sapiens); experiment: Inhibition of HSF1 in human MIAPaCa2 cells assessed as potentiation of SM253-induced reduction in HSF1 at 50 uM relative to SM253 alone; type: cell-based; parameters: scale not given: the % may be the effect or the level left; details: MIA PaCa-2
[8] = target: T1, Heat shock factor protein 1 (Homo sapiens); experiment: Inhibition of HSF1 in human HCT116 cells assessed as potentiation of SM258-induced increase in cell death at 15 uM relative to SM258 alone; type: cell-based; parameters: scale not given: the % may be the effect or the level left; details: HCT-116
[9] = target: T1, Heat shock factor protein 1 (Homo sapiens); experiment: Inhibition of HSF1 in human HCT116 cells assessed as potentiation of SM258-induced reduction in HSF1 at 15 uM relative to SM258 alone; type: cell-based; parameters: scale not given: the % may be the effect or the level left; details: HCT-116
[10] = target: T1, Heat shock factor protein 1 (Homo sapiens); experiment: Inhibition of HSF1 in human HCT116 cells assessed as potentiation of SM258-induced increase in cell death at 30 uM relative to SM258 alone; type: cell-based; parameters: scale not given: the % may be the effect or the level left; details: HCT-116
[11] = target: T1, Heat shock factor protein 1 (Homo sapiens); experiment: Inhibition of HSF1 in human HCT116 cells assessed as potentiation of SM258-induced reduction in HSF1 at 30 uM relative to SM258 alone; type: cell-based; parameters: scale not given: the % may be the effect or the level left; details: HCT-116
[12] = Induction of cell death in human PANC1 cells at 50 uM; type: functional, PANC-1
[13] = Induction of cell death in human MIAPaCa2 cells at 50 uM; type: functional, MIA PaCa-2
[14] = Antitumor activity against human MIAPaCa2 cells xenografted in mouse assessed as reduction in tumor volume at 150 mg/kg; type: functional, MIA PaCa-2; parameters: scale not given: the % may be the effect or the level left
[15] = target: T2, Heat shock factor protein 1 (Homo sapiens, UniProt Q00613); experiment: Inhibition of HSF1 (unknown origin) assessed as reduction in HSF1--mediated HSP transcription
T2 sequence (Q00613 whole entry): T1 sequence (whole entry)

HCT-116 = experiment: Antitumor activity against human HCT116 cells xenografted in mouse assessed as reduction in tumor size at 50 mg/kg; type: functional
[16] = target: T1, Heat shock factor protein 1 (Homo sapiens); experiment: Inhibition of HSF1 in human INA63 cells assessed as potentiation of NVP-AUY-922-induced reduction in cell proliferation at 5 nM relative to NVP-AUY-922 alone; type: cell-based; parameters: scale not given: the % may be the effect or the level left
[17] = target: T1, Heat shock factor protein 1 (Homo sapiens); experiment: Inhibition of HSF1 in human MM.1S cells assessed as potentiation of NVP-AUY-922-induced reduction in cell proliferation at 6 nM relative to NVP-AUY-922 alone; type: cell-based; parameters: scale not given: the % may be the effect or the level left
[18] = target: T1, Heat shock factor protein 1 (Homo sapiens); experiment: Inhibition of HSF1 in human H929 cells assessed as potentiation of 17-AAG-induced icrease in cell death at 100 nM relative to 17-AAG alone; type: cell-based; parameters: scale not given: the % may be the effect or the level left
[19] = target: T1, Heat shock factor protein 1 (Homo sapiens); experiment: Inhibition of HSF1 in human HeLa cells assessed as potentiation of radicicol and heat-induced increase in cell death at 60 nM relative to radicicol and heat alone; type: cell-based; parameters: scale not given: the % may be the effect or the level left
A-375 [20] = experiment: Cytotoxicity against human A375 cells in absence of HSF1 knock down treatment; type: functional, cell-based
A2058 [21] = experiment: Cytotoxicity against human A2058 cells in absence of HSF1 knock down treatment; type: functional, cell-based
A-375 [22] = experiment: Cytotoxicity against human A375 cells in presence of HSF1 knock down treatment; type: functional, cell-based
A2058 [23] = experiment: Cytotoxicity against human A2058 cells in presence of HSF1 knock down treatment; type: functional, cell-based
[24] = target: T1, Heat shock factor protein 1 (Homo sapiens); experiment: Inhibition of HSF1 in human HL60 cells assessed as potentiation of 17-AAG-induced reduction in cologenicity at 400 uM relative to 17-AAG alone; type: cell-based; parameters: scale not given: the % may be the effect or the level left; details: HL-60
[25] = target: T1, Heat shock factor protein 1 (Homo sapiens); experiment: Inhibition of HSF1 in human HL60 cells assessed as potentiation of 17-AAG-induced increase in apoptosis at 400 uM relative to 17-AAG alone; type: cell-based; parameters: scale not given: the % may be the effect or the level left; details: HL-60
[26] = target: T1, Heat shock factor protein 1 (Homo sapiens); experiment: Inhibition of HSF1 in human ASB145 cells assessed as potentiation of geldanamycin-induced reduction in cell proliferation at 20 uM relative to geldanamycin alone; type: cell-based; parameters: scale not given: the % may be the effect or the level left
[27] = target: T1, Heat shock factor protein 1 (Homo sapiens); experiment: Inhibition of HSF1 in human ASB244 cells assessed as potentiation of geldanamycin-induced reduction in cell proliferation at 20 uM relative to geldanamycin alone; type: cell-based; parameters: scale not given: the % may be the effect or the level left
[28] = target: T1, Heat shock factor protein 1 (Homo sapiens); experiment: Inhibition of HSF1 in human ASB244 cells assessed as potentiation of geldanamycin-induced reduction in cell migration at 10 uM relative to geldanamycin alone; type: cell-based; parameters: scale not given: the % may be the effect or the level left

With `CCC1CN2CCc3cc(OC)c(OC)cc3C2CC1CC1NCCc2ccccc21` (centres undefined) the Activity [1] was 30%, the Activity [2] was 50% and the Activity [3] was 30%. For the same compound, the Activity [4] was 77%, the Activity [5] was 60% and the Activity [6] was 64%. It also gave an Activity [7] of 55%, an Activity [8] of 77% and an Activity [9] of 50%. The Activity [10] was 95% and the Activity [11] was > 99%.
`CCCCCCCc1ccc(C#Cc2nc(C(N)=O)n([C@@H]3O[C@H](CO)[C@@H](O)[C@H]3O)n2)cc1` showed an Activity [12] of 80%, an Activity [13] of 90% and an Activity [14] of 60%.
In the case of `CNc1ccc([N+](=O)[O-])c(Nc2ccc3[nH]ncc3c2)n1`, the IC50 [15] is reported as 1200 nM and the inhibition in vivo at 50 mg/kg (HCT-116) is reported as 50%.
In the case of `CC(C)[C@]12O[C@H]1[C@@H]1O[C@]13[C@]1(O[C@H]1C[C@H]1C4=C(CC[C@@]13C)C(=O)OC4)[C@@H]2O`, the Activity [16] is reported as 45%, the Activity [17] is reported as 35% and the Activity [18] is reported as 40%. It also gave an Activity [19] of 45%.
With `COc1cccc(-c2cc(F)ccc2[C@H]2Cc3nc(N)nc(C)c3C(=O)N2)n1` the IC50 (A-375 [20]) was 19 nM, the IC50 (A2058 [21]) was 12.7 nM and the IC50 (A-375 [22]) was 6 nM. The IC50 (A2058 [23]) was 5.2 nM.
With `O=CN1CC/C(=C/c2ccc3c(c2)OCO3)C1=O` the Activity [24] was 99%, the Activity [25] was 20% and the Activity [26] was 72%. It also gave an Activity [27] of 52% and an Activity [28] of 75%.

Source: ChEMBL document CHEMBL3608221, “Regulating the master regulator: Controlling heat shock factor 1 as a chemotherapy approach” (Bioorg Med Chem Lett, 2015)
